Where two headings read alike, the source gives them in different places.
Key:
fungi [1] = details: racemic compound, described in WO 2010/063700; cited from earlier work
fungi [2] = experiment: fungicidal activity (general statement, no test described); details: enantiomer Ib compared with enantiomer Ia / racemate

Row | Compound | fungicidal activity (fungi [1]) | fungicidal activity (fungi [2])
1 | CON(C(=O)c1cn(C)nc1C(F)F)C(C)Cc1c(Cl)cc(Cl)cc1Cl (racemic) [3-(difluoromethyl)-N-methoxy-1-methyl-N-[1-methyl-2-(2,4,6-trichlorophenyl)ethyl]pyrazole-4-carboxamide] | excellent fungicidal activity | –
2 | CON(C(=O)c1cn(C)nc1C(F)F)[C@@H](C)Cc1c(Cl)cc(Cl)cc1Cl [Ib, 3-(difluoromethyl)-N-methoxy-1-methyl-N-[(1S)-1-methyl-2-(2,4,6-trichlorophenyl)ethyl]pyrazole-4-carboxamide] | – | more prominent fungicidal activity
